Common to all, as to experiment: kinase selectivity panel
Common to all, as to type: biochemical

The target in experiment [1] is T1, CDK7/cyclinH/MAT1 (Homo sapiens, UniProt P50613).
T1 construct: purchased Eurofins Pharma Discovery Services (KinaseProfiler; Cerep BioPrint panel)
The conditions noted are these: read-out: percentage of control activity (POC), CDK7/cyclinH/MAT1. A digest of the protocol: (§1)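 Tested at 10 μM in duplicate within a panel of 125 representative kinases. For selected activities, IC50 values were then determined from 9 concentrations, each run in duplicate.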

Experiment [2] deals with T2, EGFR (Homo sapiens, UniProt P00533).
T2 construct: purchased Eurofins Pharma Discovery Services (KinaseProfiler; Cerep BioPrint panel)
The following applies: read-out: percentage of control activity (POC), EGFR. In short, it runs like this:
as §1

Experiment [3] has as its target T3, EphB4 (Homo sapiens, UniProt P54760).
T3 construct: purchased Eurofins Pharma Discovery Services (KinaseProfiler; Cerep BioPrint panel)
T3 sequence (P54760 16-987): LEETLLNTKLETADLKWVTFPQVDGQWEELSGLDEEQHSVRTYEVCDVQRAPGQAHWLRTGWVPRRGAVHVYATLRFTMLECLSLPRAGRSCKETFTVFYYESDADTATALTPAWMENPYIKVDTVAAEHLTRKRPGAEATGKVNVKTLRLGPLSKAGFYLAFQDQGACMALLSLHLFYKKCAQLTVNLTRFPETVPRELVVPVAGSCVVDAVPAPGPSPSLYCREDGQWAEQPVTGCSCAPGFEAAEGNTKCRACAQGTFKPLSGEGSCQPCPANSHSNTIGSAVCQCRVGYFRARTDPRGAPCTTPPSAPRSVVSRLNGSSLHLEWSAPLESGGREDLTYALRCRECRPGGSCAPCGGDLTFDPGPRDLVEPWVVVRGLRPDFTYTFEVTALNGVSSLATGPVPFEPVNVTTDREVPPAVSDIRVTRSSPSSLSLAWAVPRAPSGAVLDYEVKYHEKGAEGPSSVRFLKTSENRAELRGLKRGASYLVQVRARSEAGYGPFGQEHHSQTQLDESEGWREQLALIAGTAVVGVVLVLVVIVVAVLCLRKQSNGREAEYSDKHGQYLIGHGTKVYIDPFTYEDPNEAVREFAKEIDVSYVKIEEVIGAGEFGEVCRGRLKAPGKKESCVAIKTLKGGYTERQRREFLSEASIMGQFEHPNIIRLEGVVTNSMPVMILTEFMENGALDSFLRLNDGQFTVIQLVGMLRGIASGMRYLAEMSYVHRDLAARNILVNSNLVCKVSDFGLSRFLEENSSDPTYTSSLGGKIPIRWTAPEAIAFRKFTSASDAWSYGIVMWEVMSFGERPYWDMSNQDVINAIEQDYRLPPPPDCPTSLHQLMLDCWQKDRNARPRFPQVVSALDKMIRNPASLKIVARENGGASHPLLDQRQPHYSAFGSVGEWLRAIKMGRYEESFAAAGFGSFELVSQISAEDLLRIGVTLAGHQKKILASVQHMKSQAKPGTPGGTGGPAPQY
The following applies: read-out: percentage of control activity (POC), EphB4. A digest of the protocol: as §1

Experiment [4] addresses T4, FGFR4 (Homo sapiens, UniProt P22455).
T4 construct: purchased Eurofins Pharma Discovery Services (KinaseProfiler; Cerep BioPrint panel)
The conditions noted are these: read-out: percentage of control activity (POC), FGFR4. A digest of the protocol: as §1

Experiment [5] deals with T5, Fms (Homo sapiens, UniProt P07333).
T5 construct: purchased Eurofins Pharma Discovery Services (KinaseProfiler; Cerep BioPrint panel)
The conditions noted are these: for remaining activity at 10 µM: read-out: percentage of control activity (POC), Fms. A digest of the protocol: as §1

Experiment [6] addresses T6, GSK3β (Homo sapiens, UniProt P49841).
T6 construct: purchased Eurofins Pharma Discovery Services (KinaseProfiler; Cerep BioPrint panel)
The following applies: read-out: percentage of control activity (POC), GSK3β. In short, it runs like this: as §1

In experiment [7] the target is T7, MAPK2 (Homo sapiens, UniProt P28482).
T7 construct: purchased Eurofins Pharma Discovery Services (KinaseProfiler; Cerep BioPrint panel)
The conditions noted are these: read-out: percentage of control activity (POC), MAPK2. A digest of the protocol: as §1

The target in experiment [8] is T8, MINK (Homo sapiens, UniProt Q8N4C8).
T8 construct: purchased Eurofins Pharma Discovery Services (KinaseProfiler; Cerep BioPrint panel)
The conditions noted are these: read-out: percentage of control activity (POC), MINK. A digest of the protocol:
as §1

Experiment [9] addresses T9, PKCγ (Homo sapiens, UniProt P05129).
T9 construct: purchased Eurofins Pharma Discovery Services (KinaseProfiler; Cerep BioPrint panel)
The following applies: read-out: percentage of control activity (POC), PKCγ. In short, it runs like this: as §1

For experiment [10], the target named is T10, Pyk2 (Homo sapiens, UniProt Q14289).
T10 construct: purchased Eurofins Pharma Discovery Services (KinaseProfiler; Cerep BioPrint panel)
The conditions noted are these: read-out: percentage of control activity (POC), Pyk2. A digest of the protocol: as §1

Experiment [11] deals with T11, Rsk4 (Homo sapiens, UniProt Q9UK32).
T11 construct: purchased Eurofins Pharma Discovery Services (KinaseProfiler; Cerep BioPrint panel)
The following applies: read-out: percentage of control activity (POC), Rsk4. In short, it runs like this:
as §1

In experiment [12] the target is T12, SAPK2a (Homo sapiens, UniProt Q16539).
T12 construct: purchased Eurofins Pharma Discovery Services (KinaseProfiler; Cerep BioPrint panel)
The following applies: for remaining activity at 10 µM: read-out: percentage of control activity (POC), SAPK2a; for inhibition at 10 µM: read-out: inhibition of p38α(SAPK2α). A digest of the protocol:
as §1

Experiment [13] deals with T13, SAPK2b (Homo sapiens, UniProt Q15759).
T13 construct: purchased Eurofins Pharma Discovery Services (KinaseProfiler; Cerep BioPrint panel)
The conditions noted are these: for remaining activity at 10 µM: read-out: percentage of control activity (POC), SAPK2b; for inhibition at 10 µM: read-out: inhibition of p38 β(SAPK2β). In short, it runs like this:
as §1

T5 sequence (P07333 20-972): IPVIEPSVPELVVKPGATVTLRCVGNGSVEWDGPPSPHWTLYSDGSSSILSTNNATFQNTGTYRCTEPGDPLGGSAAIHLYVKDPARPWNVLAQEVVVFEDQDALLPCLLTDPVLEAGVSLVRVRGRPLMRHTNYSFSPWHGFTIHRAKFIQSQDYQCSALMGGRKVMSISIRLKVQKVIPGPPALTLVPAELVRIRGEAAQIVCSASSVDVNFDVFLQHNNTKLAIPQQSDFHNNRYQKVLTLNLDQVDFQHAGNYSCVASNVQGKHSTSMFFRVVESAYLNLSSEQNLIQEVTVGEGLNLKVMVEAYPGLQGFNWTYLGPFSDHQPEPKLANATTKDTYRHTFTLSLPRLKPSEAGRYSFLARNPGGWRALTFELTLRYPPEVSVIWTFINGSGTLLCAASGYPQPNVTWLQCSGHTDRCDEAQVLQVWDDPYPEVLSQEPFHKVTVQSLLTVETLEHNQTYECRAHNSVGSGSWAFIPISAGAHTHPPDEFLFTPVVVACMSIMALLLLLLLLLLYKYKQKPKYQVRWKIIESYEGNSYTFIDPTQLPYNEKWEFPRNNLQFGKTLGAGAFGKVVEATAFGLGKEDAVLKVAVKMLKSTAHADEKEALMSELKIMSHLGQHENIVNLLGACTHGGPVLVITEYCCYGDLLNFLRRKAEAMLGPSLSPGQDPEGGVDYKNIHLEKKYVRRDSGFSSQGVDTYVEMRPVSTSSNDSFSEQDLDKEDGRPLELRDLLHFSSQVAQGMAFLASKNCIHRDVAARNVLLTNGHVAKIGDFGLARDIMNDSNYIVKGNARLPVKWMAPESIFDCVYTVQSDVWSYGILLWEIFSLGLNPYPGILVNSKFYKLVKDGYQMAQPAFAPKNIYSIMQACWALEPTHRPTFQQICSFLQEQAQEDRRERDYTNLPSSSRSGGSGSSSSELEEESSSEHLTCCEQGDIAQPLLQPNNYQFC
T2 sequence (P00533 25-1210): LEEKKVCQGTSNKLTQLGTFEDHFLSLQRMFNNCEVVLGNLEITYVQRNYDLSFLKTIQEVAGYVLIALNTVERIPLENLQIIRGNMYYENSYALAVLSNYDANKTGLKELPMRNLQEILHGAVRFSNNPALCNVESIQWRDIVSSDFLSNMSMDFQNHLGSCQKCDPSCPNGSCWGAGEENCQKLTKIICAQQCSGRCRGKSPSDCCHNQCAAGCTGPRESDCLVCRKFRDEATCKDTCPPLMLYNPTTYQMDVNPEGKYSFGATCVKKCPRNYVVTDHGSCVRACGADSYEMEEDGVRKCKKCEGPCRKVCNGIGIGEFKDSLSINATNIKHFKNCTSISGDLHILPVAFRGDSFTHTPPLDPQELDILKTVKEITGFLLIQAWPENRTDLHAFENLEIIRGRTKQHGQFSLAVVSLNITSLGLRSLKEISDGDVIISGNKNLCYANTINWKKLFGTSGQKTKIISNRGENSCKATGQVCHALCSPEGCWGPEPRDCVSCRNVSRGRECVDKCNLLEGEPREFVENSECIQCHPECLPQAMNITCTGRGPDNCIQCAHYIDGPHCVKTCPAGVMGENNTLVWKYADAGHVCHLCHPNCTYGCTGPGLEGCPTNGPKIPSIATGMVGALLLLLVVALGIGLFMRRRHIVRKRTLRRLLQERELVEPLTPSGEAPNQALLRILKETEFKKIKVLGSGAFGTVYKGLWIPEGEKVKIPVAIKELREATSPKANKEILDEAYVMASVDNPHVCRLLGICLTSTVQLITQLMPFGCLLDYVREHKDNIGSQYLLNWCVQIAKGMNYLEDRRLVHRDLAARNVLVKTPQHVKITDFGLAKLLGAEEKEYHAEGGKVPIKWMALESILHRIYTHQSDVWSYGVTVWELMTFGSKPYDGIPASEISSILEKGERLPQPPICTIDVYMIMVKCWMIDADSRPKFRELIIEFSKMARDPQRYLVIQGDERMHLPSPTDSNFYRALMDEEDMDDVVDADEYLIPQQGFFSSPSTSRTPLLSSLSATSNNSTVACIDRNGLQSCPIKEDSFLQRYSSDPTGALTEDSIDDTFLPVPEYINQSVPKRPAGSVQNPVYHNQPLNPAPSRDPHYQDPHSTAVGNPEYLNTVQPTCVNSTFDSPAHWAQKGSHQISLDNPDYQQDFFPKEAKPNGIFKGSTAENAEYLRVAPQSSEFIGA
T4 sequence (P22455 22-802): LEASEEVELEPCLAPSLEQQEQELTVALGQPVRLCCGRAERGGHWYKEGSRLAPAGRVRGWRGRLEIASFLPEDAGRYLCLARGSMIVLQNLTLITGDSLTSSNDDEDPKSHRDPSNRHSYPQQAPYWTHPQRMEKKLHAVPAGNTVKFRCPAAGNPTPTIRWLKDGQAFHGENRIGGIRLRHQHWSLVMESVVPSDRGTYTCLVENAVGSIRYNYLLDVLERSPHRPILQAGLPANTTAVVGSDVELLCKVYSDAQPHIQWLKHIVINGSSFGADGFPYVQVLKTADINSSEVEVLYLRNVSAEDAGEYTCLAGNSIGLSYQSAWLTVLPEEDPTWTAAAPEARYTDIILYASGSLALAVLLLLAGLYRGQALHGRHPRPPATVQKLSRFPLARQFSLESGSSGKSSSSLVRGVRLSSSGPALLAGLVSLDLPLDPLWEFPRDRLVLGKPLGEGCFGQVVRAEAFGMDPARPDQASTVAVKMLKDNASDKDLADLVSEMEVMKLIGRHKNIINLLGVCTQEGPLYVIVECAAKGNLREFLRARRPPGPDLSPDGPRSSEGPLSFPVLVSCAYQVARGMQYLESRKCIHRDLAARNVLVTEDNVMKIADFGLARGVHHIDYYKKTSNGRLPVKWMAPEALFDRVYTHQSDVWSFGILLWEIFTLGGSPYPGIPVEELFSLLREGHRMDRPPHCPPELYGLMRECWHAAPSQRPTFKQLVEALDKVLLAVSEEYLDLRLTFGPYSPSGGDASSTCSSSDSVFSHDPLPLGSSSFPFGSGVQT
T8 sequence (Q8N4C8 whole entry): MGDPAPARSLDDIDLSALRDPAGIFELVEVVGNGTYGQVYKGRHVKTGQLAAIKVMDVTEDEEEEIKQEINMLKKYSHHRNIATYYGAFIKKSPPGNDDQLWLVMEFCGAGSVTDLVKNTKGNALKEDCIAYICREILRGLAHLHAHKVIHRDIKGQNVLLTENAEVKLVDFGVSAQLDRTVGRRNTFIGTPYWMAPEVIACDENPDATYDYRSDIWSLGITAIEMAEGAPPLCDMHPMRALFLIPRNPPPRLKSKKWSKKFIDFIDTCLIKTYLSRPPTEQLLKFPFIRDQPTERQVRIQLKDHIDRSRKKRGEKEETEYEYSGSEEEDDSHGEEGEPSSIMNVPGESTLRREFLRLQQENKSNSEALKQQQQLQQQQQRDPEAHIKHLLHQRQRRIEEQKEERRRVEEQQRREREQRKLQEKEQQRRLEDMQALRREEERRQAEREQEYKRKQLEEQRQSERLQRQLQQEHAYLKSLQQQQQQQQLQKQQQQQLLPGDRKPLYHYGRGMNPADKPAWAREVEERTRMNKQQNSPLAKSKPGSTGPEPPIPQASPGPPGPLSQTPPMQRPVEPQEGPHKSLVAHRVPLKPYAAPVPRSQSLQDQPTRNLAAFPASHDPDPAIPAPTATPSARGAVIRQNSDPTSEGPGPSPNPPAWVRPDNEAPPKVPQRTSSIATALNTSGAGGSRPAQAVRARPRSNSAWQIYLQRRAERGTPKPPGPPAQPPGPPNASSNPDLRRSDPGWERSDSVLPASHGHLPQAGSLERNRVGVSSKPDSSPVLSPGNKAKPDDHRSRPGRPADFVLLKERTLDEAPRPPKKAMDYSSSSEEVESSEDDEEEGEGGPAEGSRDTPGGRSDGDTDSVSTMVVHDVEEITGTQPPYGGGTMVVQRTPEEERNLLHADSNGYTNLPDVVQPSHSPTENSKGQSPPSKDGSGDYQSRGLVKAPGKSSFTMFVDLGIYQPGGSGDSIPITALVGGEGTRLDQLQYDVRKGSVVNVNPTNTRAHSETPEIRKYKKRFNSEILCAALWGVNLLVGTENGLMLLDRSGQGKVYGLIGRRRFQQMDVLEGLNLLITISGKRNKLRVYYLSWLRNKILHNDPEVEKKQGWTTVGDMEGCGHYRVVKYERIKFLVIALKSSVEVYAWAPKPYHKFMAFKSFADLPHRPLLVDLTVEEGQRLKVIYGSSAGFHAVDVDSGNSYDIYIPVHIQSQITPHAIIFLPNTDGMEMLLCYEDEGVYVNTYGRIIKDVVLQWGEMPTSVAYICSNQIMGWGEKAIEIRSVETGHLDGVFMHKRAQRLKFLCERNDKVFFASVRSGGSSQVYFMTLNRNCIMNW
T6 sequence (P49841 whole entry): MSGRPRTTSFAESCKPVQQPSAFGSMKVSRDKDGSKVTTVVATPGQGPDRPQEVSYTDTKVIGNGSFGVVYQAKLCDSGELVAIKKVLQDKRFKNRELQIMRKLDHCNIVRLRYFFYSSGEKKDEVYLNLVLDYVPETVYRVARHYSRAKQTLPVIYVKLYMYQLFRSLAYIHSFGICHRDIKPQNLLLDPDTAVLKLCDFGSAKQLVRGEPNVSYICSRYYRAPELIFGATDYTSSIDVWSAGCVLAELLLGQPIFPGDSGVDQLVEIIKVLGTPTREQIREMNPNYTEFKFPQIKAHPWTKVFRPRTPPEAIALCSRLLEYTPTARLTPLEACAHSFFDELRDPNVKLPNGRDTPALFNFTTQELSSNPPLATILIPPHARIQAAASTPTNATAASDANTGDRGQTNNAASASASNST
T13 sequence (Q15759 whole entry): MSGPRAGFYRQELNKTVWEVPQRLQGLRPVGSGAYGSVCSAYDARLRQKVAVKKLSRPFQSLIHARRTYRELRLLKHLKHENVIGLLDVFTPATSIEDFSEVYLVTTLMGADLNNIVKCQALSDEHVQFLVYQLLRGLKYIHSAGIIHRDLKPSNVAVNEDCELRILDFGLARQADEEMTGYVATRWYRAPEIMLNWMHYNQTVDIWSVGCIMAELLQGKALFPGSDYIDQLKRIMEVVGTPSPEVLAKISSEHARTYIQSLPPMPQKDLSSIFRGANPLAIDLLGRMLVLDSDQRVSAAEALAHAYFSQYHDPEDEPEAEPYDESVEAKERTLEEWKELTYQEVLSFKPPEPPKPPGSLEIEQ

In the case of `Cn1cc(-c2cccc(-c3nc(C(=O)NC4C5CC6CC4CC(O)(C6)C5)c(N)nc3N)c2)cn1` (stereo not shown) [compound 4], the remaining activity at 10 µM in [1] amounted to 95%; in experiment [2], 95%; in experiment [3] it was 99%; in [4], 86%; in experiment [5], 63%; in experiment [6], 105%. Moreover, the remaining activity at 10 µM in experiment [7] came to 97%; in experiment [8] it was 94%; in experiment [9], 96%; in [10], 86%; in [11] it was 110%; in [12], 91%. The remaining activity at 10 µM in experiment [13] is 99%.
As to `COc1c(NC(=O)c2ccc(C)c(-c3nnc4c(NCC(C)(C)C)nccn34)c2)cc(C(C)(C)C)cc1NS(C)(=O)=O` [compound 7, reference compound], the remaining activity at 10 µM in [1] is 101%; in [2] it was 104%; in experiment [3], 92%; in experiment [4], 89%; in experiment [5], 26%; in experiment [6] it was 117%. The remaining activity at 10 µM in experiment [7] is 99%; in experiment [8] it was 110%; in experiment [9], 105%; in [10], 87%; in experiment [11], 131%; in [12] it was -1%. In addition, the remaining activity at 10 µM in [13] is -4%. Moreover, the results for the inhibition at 10 µM in experiment [5], in [12] and in [13] were 74%, approximately 100% and approximately 100%, respectively.
With `Cc1ccc(C(=O)NCC2CC2)cc1-c1ccc2c(c1)NC(=O)C21CCCC1` [compound 3], the remaining activity at 10 µM in [1] is 104%; in [2], 91%; in [3], 105%; in experiment [4], 91%; in experiment [5] it was 47%; in experiment [6], 104%. In addition, the remaining activity at 10 µM in experiment [7] is 97%; in experiment [8], 93%; in [9], 104%; in [10] it was 99%; in experiment [11], 103%; in experiment [12], -2%. In addition, the remaining activity at 10 µM in experiment [13] was -6%. Also, the values for the inhibition at 10 µM in experiment [5], in experiment [12] and in experiment [13] were 53%, approximately 100% and approximately 100%, respectively.
For the compound `CC(C)(C)N1CCC(c2cc(-c3ccc(F)cc3Cl)c3cc[n+]([O-])c(-c4c(Cl)cccc4Cl)c3n2)CC1` [compound 2], the remaining activity at 10 µM in [1] is 115%; in experiment [2], 96%; in experiment [3], 91%; in experiment [4], 88%; in experiment [5], 100%; in [6], 99%. For the same compound, the remaining activity at 10 µM in experiment [7] is 105%; in experiment [8], 104%; in experiment [9], 117%; in experiment [10], 99%; in experiment [11], 102%; in experiment [12], -1%. In addition, the remaining activity at 10 µM in [13] was -5%. In addition, the inhibition at 10 µM in experiment [12] and in [13] was approximately 100% in each case.
As for `CS(=O)(=O)N1CCN(c2ccc(Nc3ncc(C(N)=O)c(NC4CC4)n3)cc2)CC1` [compound 5], the remaining activity at 10 µM in experiment [1] is 71%; in experiment [2], 87%; in [3], 36%; in [4], 73%; in experiment [5], -2%; in experiment [6] it was 25%. In addition, the remaining activity at 10 µM in [7] came out at 49%; in experiment [8], 14%; in experiment [9] it was 4%; in experiment [10], 4%; in [11], 2%; in experiment [12] it was 89%. Further, the remaining activity at 10 µM in experiment [13] is 82%.

The values above are taken from paper PMC5761851, “Application of a phenotypic drug discovery strategy to identify biological and chemical starting points for inhibition of TSLP production in lung epithelial cells” (PLoS ONE, 2018).
